Measured values from patent US20250326771A1, “PIPERAZINE DERIVATIVES USEFUL IN HIV THERAPY” (VIIV HEALTHCARE COMPANY, priority 2022, published 2025).
Read-outs that look alike come from different tables or passages of the source.

Legend:
XIAP-BIR2 = XIAP-BIR2 (Homo sapiens (Human), UniProt P98170); assay: BIR binding assay (FRET competition), XIAP BIR2
Summary of the method: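 Compounds in a 15-point, 3-fold series competed with an AlexaFluor647 SMAC peptide (AVPIAQKSE, 200 nM) for 200 nM His-tagged XIAP-BIR2 over 60 min in pH 7.4 HEPES/CHAPS/DTT buffer. Eu-W1024 (2 nM) was then added for 30 min. IC50 and pIC50 were derived from the 615 nm/665 nm emission ratio by variable-slope fit.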

cIAP2-BIR2 = cIAP2-BIR2 (Homo sapiens (Human), UniProt Q13489); assay: BIR binding assay (FRET competition), cIAP2 BIR2
Summary of the method: (§1)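 His-tagged domains (50 nM cIAP1-BIR3, 325 nM cIAP2-BIR2, 325 nM cIAP1-BIR2, 100 nM XIAP-BIR3) compete with compounds for a 200 nM AlexaFluor647-labelled SMAC/DIABLO peptide in HEPES buffer, pH 7.4, for 60 min. Then 2 nM Eu-W1024 is added for 30 min. The 615/665 nm ratio is fit by four-parameter fit to give IC50.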

XIAP-BIR3 = XIAP-BIR3 (Homo sapiens (Human), UniProt P98170); assay: BIR binding assay (FRET competition), XIAP BIR3; conditions: for XIAP BIR3 vs BIR2 separation window: fold separation (FS) for XIAP
Summary of the method: as §1

[1] = test system: Jurkat HIV-luciferase clones; assay: Jurkat latency reversal assay; type: cell-based; conditions: Homo sapiens, 48 h; Jurkat latency reversal assay potency; read-out: Jurkat pEC50 (converted)
Summary of the method: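 EC50 and maximal activation versus vehicle were derived by four-parameter logistic regression of luciferase luminescence. The luminescence was induced in pooled Jurkat HIV-luciferase clones C16, 115 and N6 (5,000 cells/well) after 48 h at 37° C with duplicate 14-point, 3-fold dilutions starting at 10 μM (0.5% DMSO).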

cIAP1-BIR2 = cIAP1-BIR2 (Homo sapiens (Human), UniProt Q13490); assay: BIR binding assay (FRET competition), cIAP1 BIR2
Summary of the method: as §1

cIAP2-BIR3 = cIAP2-BIR3 (Homo sapiens (Human), UniProt Q13489); assay: BIR binding assay (FRET competition), cIAP2 BIR3; conditions: for cIAP2 BIR3 vs BIR2 separation window: fold separation (FS) for cIAP2
cIAP1-BIR3 = cIAP1-BIR3 (Homo sapiens (Human), UniProt Q13490); assay: BIR binding assay (FRET competition), cIAP1 BIR3; conditions: for cIAP1 BIR3 vs BIR2 separation window: fold separation (FS) for cIAP1
Summary of the method: as §1

[2] = FRET competition binding, read-out: XIAP BIR2 (pIC50) (converted)
[3] = FRET competition, read-out: XIAP BIR2 (pIC50) (converted)

Chain of cIAP1-BIR3 (Q13490 253-363): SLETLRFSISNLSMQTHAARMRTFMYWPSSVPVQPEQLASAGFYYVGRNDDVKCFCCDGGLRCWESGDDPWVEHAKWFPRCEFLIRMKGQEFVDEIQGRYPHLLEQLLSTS
Chain of XIAP-BIR2 (P98170 124-240): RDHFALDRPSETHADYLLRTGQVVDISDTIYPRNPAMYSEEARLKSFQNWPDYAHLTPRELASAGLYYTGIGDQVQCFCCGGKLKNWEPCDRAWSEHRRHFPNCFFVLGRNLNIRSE
Chain of cIAP2-BIR2 (Q13489 158-242): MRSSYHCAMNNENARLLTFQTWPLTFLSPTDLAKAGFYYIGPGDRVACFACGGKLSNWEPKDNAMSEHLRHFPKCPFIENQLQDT
Chain of cIAP2-BIR3 (Q13489 238-349): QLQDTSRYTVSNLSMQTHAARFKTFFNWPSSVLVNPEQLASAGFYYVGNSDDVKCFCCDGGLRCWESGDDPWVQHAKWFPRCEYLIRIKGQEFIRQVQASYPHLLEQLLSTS
Chain of cIAP1-BIR2 (Q13490 173-257): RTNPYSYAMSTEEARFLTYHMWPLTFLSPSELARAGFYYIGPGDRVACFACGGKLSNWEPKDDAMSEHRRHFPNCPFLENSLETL
Chain of XIAP-BIR3 (P98170 241-356): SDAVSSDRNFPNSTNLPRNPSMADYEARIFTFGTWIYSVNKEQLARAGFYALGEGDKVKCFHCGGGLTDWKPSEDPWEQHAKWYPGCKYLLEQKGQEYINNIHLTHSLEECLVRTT

Row | SMILES | IC50 (XIAP-BIR2) | IC50 (cIAP2-BIR2) | IC50 (XIAP-BIR3) | EC50 [1] | IC50 (cIAP1-BIR2) | IC50 (cIAP2-BIR3) | IC50 (cIAP1-BIR3) | IC50 (XIAP-BIR2; [2]) | XIAP BIR3 vs BIR2 separation window (XIAP-BIR3) | cIAP2 BIR3 vs BIR2 separation window (cIAP2-BIR3) | cIAP1 BIR3 vs BIR2 separation window (cIAP1-BIR3) | IC50 (XIAP-BIR2; [3])
1 | C[C@@H]1CN(CC(=O)N2CC(C)(C)c3[nH]c(=O)c(Cc4ccc(F)cc4)cc32)[C@@H](CN2CCO[C@H](COc3cccc(OC[C@@H]4CN(C[C@H]5CN[C@H](C)CN5CC(=O)N5CC(C)(C)c6[nH]c(=O)c(Cc7ccc(F)cc7)cc65)CCO4)c3)C2)CN1 [Example 69, 1,1′-(2,2′-((3R,3′R,6R,6′R)-(((2S,2'S)-((1,3-phenylenebis(oxy))bis(methylene))bis(morpholine-2,4-diyl))bis(methylene))bis(3-methylpiperazine-6,1-diyl))bis(acetyl))bis(6-(4-fluorobenzyl)-3,3-dimethyl-1,2,3,4-tetrahydro-5H-pyrrolo[3,2-b]pyridin-5-one)] | 10000 to 51300 nM | 1000 to 3160 nM | 15.8 to 31.6 nM | 0.49 to 12.6 nM | 1000 to 3160 nM | 7.94 to 15.8 nM | 7.94 to 15.8 nM | – | – | – | – | –
2 | C[C@@H]1CN(CC(=O)N2CC(C)(C)c3[nH]c(=O)c(Cc4ccc(F)cc4)cc32)[C@@H](CN2CCO[C@H](C(=O)N[C@H]3CC[C@H](NC(=O)[C@@H]4CN(C[C@H]5CN[C@H](C)CN5CC(=O)N5CC(C)(C)c6[nH]c(=O)c(Cc7ccc(F)cc7)cc65)CCO4)CC3)C2)CN1 [Example 92, (2S,2'S)-N,N′-((1S,4S)-cyclohexane-1,4-diyl)bis(4-(((2R,5R)-1-(2-(6-(4-fluorobenzyl)-3,3-dimethyl-5-oxo-2,3,4,5-tetrahydro-1H-pyrrolo[3,2-b]pyridin-1-yl)-2-oxoethyl)-5-methylpiperazin-2-yl)methyl)morpholine-2-carboxamide)] | – | 1000 to 3160 nM | 7.94 to 15.8 nM | 12.6 to 63.1 nM | 1000 to 3160 nM | 7.94 to 15.8 nM | 1.38 to 7.94 nM | 10000 to 51300 nM | ++++ (FS>10,000) | +++ (10,000>FS>1,000) | +++ (10,000>FS>1,000) | –
3 | C[C@@H]1CN(CC(=O)N2CC(C)(C)c3ncc(Cc4ccccc4)cc32)[C@@H](CN2CCO[C@H](COc3cccc(OC[C@@H]4CN(C[C@H]5CN[C@H](C)CN5CC(=O)N5CC(C)(C)c6ncc(Cc7ccccc7)cc65)CCO4)c3)C2)CN1 [Compound 150] | 10000 to 51300 nM | 10000 to 51300 nM | 15.8 to 31.6 nM | 12.6 to 63.1 nM | 3160 to 10000 nM | 7.94 to 15.8 nM | 7.94 to 15.8 nM | – | ++++ (FS>10,000) | ++++ (FS>10,000) | +++ (10,000>FS>1,000) | –
4 | C[C@@H]1CN(CC(=O)N2CC(C)(C)c3[nH]c(=O)c(Cc4ccc(F)cc4F)cc32)[C@@H](CN2CCO[C@H](C(=O)NCc3ccc(CNC(=O)[C@@H]4CN(C[C@H]5CN[C@H](C)CN5CC(=O)N5CC(C)(C)c6[nH]c(=O)c(Cc7ccc(F)cc7F)cc65)CCO4)cc3)C2)CN1 [Compound 177, (2S,2′S)-N,N′-(1,4-phenylenebis(methylene)) bis(4-(((2R,5R)-1-(2-(6-(2,4-difluorobenzyl)-3,3-dimethyl-5-oxo-2,3,4,5-tetrahydro-1H-pyrrolo[3,2-b]pyridin-1-yl)-2-oxoethyl)-5-methylpiperazin-2-yl)methyl)morpholine-2-carboxamide)] | – | 1000 to 3160 nM | 31.6 to 501 nM | 0.49 to 12.6 nM | 1000 to 3160 nM | 7.94 to 15.8 nM | 15.8 to 31.6 nM | – | ++++ (FS>10,000) | +++ (10,000>FS>1,000) | +++ (10,000>FS>1,000) | 10000 to 51300 nM
5 | C[C@@H]1CN(CC(=O)N2CC(C)(C)c3[nH]c(=O)c(Cc4ccc(F)cc4)cc32)[C@@H](CN2CCN(Cc3c(F)c(F)c(CN4CCN(C[C@H]5CN[C@H](C)CN5CC(=O)N5CC(C)(C)c6[nH]c(=O)c(Cc7ccc(F)cc7)cc65)[C@H](C)C4)c(F)c3F)C[C@H]2C)CN1 [Example 28, 1,1′-(2,2′-((3R,3′R,6R,6′R)-(((2R,2′R)-((perfluoro-1,4-phenylene)bis(methylene))bis(2-methylpiperazine-4,1-diyl))bis(methylene))bis(3-methylpiperazine-6,1-diyl))bis(acetyl))bis(6-(4-fluorobenzyl)-3,3-dimethyl-1,2,3,4-tetrahydro-5H-pyrrolo [3,2-b]pyridin-5-one)] | – | 3160 to 10000 nM | 31.6 to 501 nM | 316 to 3310 nM | 1000 to 3160 nM | 15.8 to 31.6 nM | 15.8 to 31.6 nM | 10000 to 51300 nM | +++ (10,000>FS>1,000) | +++ (10,000>FS>1,000) | +++ (10,000>FS>1,000) | –
6 | C[C@@H]1CN(CC(=O)N2CC(C)(C)c3[nH]c(=O)c(Cc4ccc(F)cc4)cc32)[C@@H](CN2CCC[C@H](NC(=O)Cc3cccc(CC(=O)N[C@H]4CCCN(C[C@H]5CN[C@H](C)CN5CC(=O)N5CC(C)(C)c6[nH]c(=O)c(Cc7ccc(F)cc7)cc65)C4)c3)C2)CN1 [Example 41, 2,2′-(1,3-phenylene)bis(N-((S)-1-(((2R,5R)-1-(2-(6-(4-fluorobenzyl)-3,3-dimethyl-5-oxo-2,3,4,5-tetrahydro-1H-pyrrolo[3,2-b]pyridin-1-yl)-2-oxoethyl)-5-methylpiperazin-2-yl)methyl)piperidin-3-yl)acetamide)] | – | 3160 to 10000 nM | 31.6 to 501 nM | 316 to 3310 nM | 3160 to 10000 nM | 31.6 to 501 nM | 31.6 to 501 nM | 10000 to 51300 nM | +++ (10,000>FS>1,000) | +++ (10,000>FS>1,000) | +++ (10,000>FS>1,000) | –
7 | C[C@@H]1CN(CC(=O)N2CC(C)(C)c3[nH]c(=O)c(Oc4ccc(Br)cc4)cc32)[C@@H](CN2CCO[C@H](C(=O)NCc3ccc(CNC(=O)[C@@H]4CN(C[C@H]5CN[C@H](C)CN5CC(=O)N5CC(C)(C)c6[nH]c(=O)c(Oc7ccc(Br)cc7)cc65)CCO4)cc3)C2)CN1 [Compound 183, (2S,2′S)-N,N′-(1,4-phenylenebis(methylene)) bis(4-(((2R,5R)-1-(2-(6-(4-bromophenoxy)-3,3-dimethyl-5-oxo-2,3,4,5-tetrahydro-1H-pyrrolo[3,2-b]pyridin-1-yl)-2-oxoethyl)-5-methylpiperazin-2-yl)methyl)morpholine-2-carboxamide)] | – | 1000 to 3160 nM | 31.6 to 501 nM | 63.1 to 316 nM | 1000 to 3160 nM | 1.38 to 7.94 nM | 1.38 to 7.94 nM | – | +++ (10,000>FS>1,000) | +++ (10,000>FS>1,000) | +++ (10,000>FS>1,000) | 10000 to 51300 nM
8 | C[C@@H]1CN(CC(=O)N2CC(C)(C)c3c2cc(Cc2ccc(F)cc2)c(=O)n3C)[C@@H](CN2CCO[C@H](COCc3ccc(COC[C@@H]4CN(C[C@H]5CN[C@H](C)CN5CC(=O)N5CC(C)(C)c6c5cc(Cc5ccc(F)cc5)c(=O)n6C)CCO4)cc3)C2)CN1 [Example 117, 1,1′-(2,2′-((3R,3′R,6R,6′R)-(((2S,2'S)-(((1,4-phenylenebis(methylene))bis(oxy))bis(methylene))bis(morpholine-2,4-diyl))bis(methylene))bis(3-methylpiperazine-6,1-diyl))bis(acetyl))bis(6-(4-fluorobenzyl)-3,3,4-trimethyl-1,2,3,4-tetrahydro-5H-pyrrolo[3,2-b]pyridin-5-one)] | – | 3160 to 10000 nM | 31.6 to 501 nM | 63.1 to 316 nM | 3160 to 10000 nM | 15.8 to 31.6 nM | 15.8 to 31.6 nM | 10000 to 51300 nM | ++++ (FS>10,000) | +++ (10,000>FS>1,000) | +++ (10,000>FS>1,000) | –
